We go through 27 compounds from patent US9150505B2, “Prophylactic or therapeutic agent for diabetes or obesity” (AJINOMOTO CO., INC., priority 2010, dated 2015).

Structures can show the parent of a compound that is named as a salt.

The target of this test is T1, human CaSR (Homo sapiens, UniProt P41180).
T1 construct: expressed in transfected cells; host or cells: 293E cells (EBNA1-expressing HEK293, ATCC No. CRL-10852), transient transfection of hCaSR/pcDNA3.1
T1 sequence (P41180 20-1078): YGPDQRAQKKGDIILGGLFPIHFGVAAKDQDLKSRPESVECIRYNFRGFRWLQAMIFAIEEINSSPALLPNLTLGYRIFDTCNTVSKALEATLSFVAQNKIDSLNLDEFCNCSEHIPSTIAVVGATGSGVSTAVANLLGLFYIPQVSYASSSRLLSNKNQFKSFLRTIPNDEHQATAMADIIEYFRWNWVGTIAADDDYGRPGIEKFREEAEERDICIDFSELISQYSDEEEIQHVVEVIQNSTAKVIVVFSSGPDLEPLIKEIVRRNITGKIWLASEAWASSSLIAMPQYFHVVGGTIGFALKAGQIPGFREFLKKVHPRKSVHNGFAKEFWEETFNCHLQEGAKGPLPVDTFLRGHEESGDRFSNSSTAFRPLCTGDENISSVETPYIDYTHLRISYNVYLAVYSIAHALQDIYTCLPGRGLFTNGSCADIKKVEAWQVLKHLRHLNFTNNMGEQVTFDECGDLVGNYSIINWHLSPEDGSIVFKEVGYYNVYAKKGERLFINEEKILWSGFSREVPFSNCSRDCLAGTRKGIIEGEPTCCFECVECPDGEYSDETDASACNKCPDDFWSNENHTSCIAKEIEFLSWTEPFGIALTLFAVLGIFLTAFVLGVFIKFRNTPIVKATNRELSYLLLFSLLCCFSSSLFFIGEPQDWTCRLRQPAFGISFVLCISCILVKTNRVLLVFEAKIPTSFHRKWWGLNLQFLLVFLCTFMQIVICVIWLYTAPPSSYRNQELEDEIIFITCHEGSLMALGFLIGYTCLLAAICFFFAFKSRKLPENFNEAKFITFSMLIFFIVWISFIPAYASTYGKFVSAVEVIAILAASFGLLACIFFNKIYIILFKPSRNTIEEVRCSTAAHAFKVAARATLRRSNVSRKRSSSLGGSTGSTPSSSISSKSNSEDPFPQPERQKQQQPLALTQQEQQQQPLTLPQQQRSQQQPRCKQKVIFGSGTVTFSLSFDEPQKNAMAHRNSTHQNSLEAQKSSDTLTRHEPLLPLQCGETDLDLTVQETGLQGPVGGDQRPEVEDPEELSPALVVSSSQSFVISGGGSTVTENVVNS
The test can be described thus: Assessment of CaSR agonistic activity (Ca2+ fluorescence, FLIPR, hCaSR-transfected 293E cells). The conditions noted are these: human CaSR-expressing 293E cells, 1.5 mM CaCl2 assay buffer, 3-minute change in fluorescence intensity. The test is classed as cell-based. As to the method: CaSR gene was prepared according to the method described in Example 1 of WO07/55393. The resulting recombinant plasmid was used to generate human CaSR-expressing plasmid hCaSR/pcDNA3.1.
293E cells (EBNA1-expressing IIEK293 cells, ATCC No. CRL-10852) were cultured in DMEM ([…] Glucose-containing Dulbecco's modified Eagle medium, Nacalai Tesque) containing 10% bovine fetal serum in the presence of 250 μg/ml of G418. The cells were seeded on a 10 cm-diameter petri dish at 1.8×10^6 cells/15 ml, and left to stand in a CO2 incubator (5% CO2, 37° C.) for 24 hours. Thereafter, human CaSR expression plasmid hCaSR/pcDNA3.1 was transfected with transfection reagent Mirus Trans IT 293 (Takara Bio). Following static culture in a CO2 incubator for 24 hours, the cells were harvested with 10% bovine fetal serum-containing DMEM and seeded on a poly-D-lysine coat 384 well plate (Falcon) at 15,000 cells/well. Following static culture in a CO2 incubator for 24 hours, the medium was removed and the resultant was added with 50 μl/well of Ca^2+ fluorescent indicator Calcium 4 Assay Kit (Molecular Devices) dissolved in an assay buffer (146 mM NaCl, 5 mM KCl, 1 mM MgSO4, 1 mg/ml Glucose, 20 mM HEPES (PH 7.2), 1.5 mM CaCl2), and left to stand at 37° C. for an hour and then at room temperature for 30 minutes to allow intake of the indicator. The above-mentioned 384-well plate was transferred to FLIPR (Molecular Devices) and added with 12.5 μl/well of a compound dissolved in a 0.1% BSA-containing assay buffer to measure 3-minute change in the fluorescence intensity.
The difference between maximum and minimum fluorescence intensities before and after compound addition (RFU (Max−Min)) was determined by FLIPR automatic calculation. An activity rate was calculated where RFU (Max−Min) upon addition of a compound at a maximum concentration was defined 100% and RFU (Max−Min) upon addition of DMSO as a substitute for the compound at the same concentration was defined 0%. The rate was subjected to curve fitting using spreadsheet software Xfit to determine EC50 value, i.e., a compound concentration upon 50% activity rate.
On to `N[C@@H](CSC(=O)Nc1cccc(S(=O)(=O)O)c1)C(=O)O` [Example 4, (2R)-2-amino-3-{[(3-sulfophenyl)carbamoyl]sulfanyl}propanoic acid], for which the response was half-maximal at 40 nM (EC50).
For `N#CCC[C@H](N)COC(=O)Nc1cc(Cl)cc(S(=O)(=O)O)c1O` [Example 12, 3-({[(2S)-2-amino-4-cyanobutoxy]carbonyl}amino)-5-chloro-2-hydroxybenzene-1-sulfonic acid], the EC50 (commonly the concentration needed to bring the measured effect to its halfway point) stood at 1100 nM.
The compound `Cc1nnc([C@@H](N)CCC(=O)Nc2cc(Cl)cc(S(=O)(=O)O)c2O)o1` [Example 15, 3-[(4S)-4-amino-4-(5-methyl-1,3,4-oxadiazol-2-yl)butanamide]-5-chloro-2-hydroxybenzene-1-sulfonic acid] came in with a concentration for a half-maximal effect (EC50) of 180 nM.
Regarding `N[C@@H](CCC(=O)Nc1cc(Cl)cc(S(=O)(=O)O)c1O)c1nnc(Cc2ccccc2)o1` [Example 16, 3-[(4S)-4-amino-4-(5-benzyl-1,3,4-oxadiazol-2-yl)butanamide]-5-chloro-2-hydroxybenzene-1-sulfonic acid], the response was half-maximal at 880 nM (EC50).
The value for `N[C@@H](CCC(=O)Nc1cc(Cl)cc(S(=O)(=O)O)c1O)C(=O)NNC(=O)Cc1ccccc1` [Example 17, 3-[(4S)-4-amino-5-oxo-5-(2-phenylacetohydrazide)pentanamide]-5-chloro-2-hydroxybenzene-1-sulfonic acid] was 250 nM.
The value for `N[C@@H](CCC(=O)Nc1cc(Cl)cc(S(=O)(=O)O)c1O)C(=O)NCCc1cccc(Cl)c1` [Example 32, 3-[(4S)-4-amino-4-{[2-(3-chlorophenyl)ethyl]carbamoyl}butanamide]-5-chloro-2-hydroxybenzene-1-sulfonic acid] was 1200 nM; that for `CS(=O)(=O)NC(=O)[C@@H](N)CCC(=O)Nc1cc(Cl)cc(S(=O)(=O)O)c1O` [Example 34, 3-[(4S)-4-amino-4-(methanesulfonylcarbamoyl)butanamide]-5-chloro-2-hydroxybenzene-1-sulfonic acid] was 390 nM; that for `N[C@@H](CCC(=O)Nc1cc(Cl)cc(S(=O)(=O)O)c1O)C(=O)NO` [Example 41, 3-[(4S)-4-amino-4-(hydroxycarbamoyl)butanamide]-5-chloro-2-hydroxybenzene-1-sulfonic acid] was 39 nM.
Compound `N[C@@H](CCC(=O)Nc1cccc(S(=O)(=O)O)n1)C(=O)O` [Example 42, (2S)-2-amino-4-[(6-sulfopyridine-2-yl)carbamoyl]butanoic acid trifluoroacetic acid salt] had an EC50 of 13000 nM.
The value for `C[C@H](OC(=O)Nc1cccc(S(=O)(=O)O)c1)[C@H](N)C(=O)O` [Example 43, (2S,3S)-2-amino-3-{[(3-sulfophenyl)carbamoyl]oxy}butanoic acid] was 7000 nM; that for `Cc1c(Cl)cc(S(=O)(=O)O)cc1NC(=S)NC[C@H](N)C(=O)O` [Example 47, (2S)-2-amino-3-{[(3-chloro-2-methyl-5-sulfophenyl)carbamothioyl]amino}propanoic acid] was 4 nM.
With `N[C@@H](CCC(=O)Nc1cc(Cl)cc(S(=O)(=O)O)c1O)C(=O)NS(=O)(=O)c1ccccc1` [Example 62, 3-[(4S)-4-amino-4-[(benzenesulfonyl)carbamoyl]butanamide]-5-chloro-2-hydroxybenzene-1-sulfonic acid] the figure was 2300 nM; with `COC(=O)[C@@H](N)CNC(=O)Nc1cc(Cl)cc(S(=O)(=O)O)c1O` [Example 67, 3-({[(2S)-2-amino-3-methoxy-3-oxopropyl]carbamoyl}amino)-5-chloro-2-hydroxybenzene-1-sulfonic acid], 3 nM; with `CN(C)[C@@H](CCC(=O)Nc1cc(Cl)cc(S(=O)(=O)O)c1O)C(=O)O` [Example 76, (2S)-4-[(5-chloro-2-hydroxy-3-sulfophenyl)carbamoyl]-2-(dimethylamino)butanoic acid], 1800 nM.
With `N[C@@H](CNC(=O)Nc1cccc(S(=O)(=O)O)c1)C(=O)O` [Example 77, (2S)-2-amino-3-{[(3-sulfophenyl)carbamoyl]amino}propanoic acid] the figure was 18 nM; with `CN[C@@H](CNC(=O)Nc1cc(Cl)c(C)c(S(=O)(=O)O)c1)C(=O)O` [Example 79, (2S)-3-{[(3-chloro-4-methyl-5-sulfophenyl)carbamoyl]amino}-2-(methylamino)propanoic acid], 313 nM; with `COc1ccc(NC(=O)NC[C@H](N)C(=O)O)cc1S(=O)(=O)O` [Example 81, (2S)-2-amino-3-{[(4-methoxy-3-sulfophenyl)carbamoyl]amino}propanoic acid], 3700 nM.
`COc1ccc(S(=O)(=O)O)cc1NC(=O)NC[C@H](N)C(=O)O` [Example 82, (2S)-2-amino-3-{[(2-methoxy-5-sulfophenyl)carbamoyl]amino}propanoic acid] displayed an EC50 of 1000 nM.
With `CC(=O)Nc1cc(S(=O)(=O)O)cc(NC(=O)NC[C@H](N)C(=O)O)c1O` [Example 83, (2S)-2-amino-3-{[(3-acetamide-2-hydroxy-5-sulfophenyl)carbamoyl]amino}propanoic acid] the figure was 21100 nM.
In turn, `N[C@@H](CNC(=O)Nc1cccc(C(=O)O)c1)C(=O)O` [Example 85, 3-({[(2S)-2-amino-2-carboxyethyl]carbamoyl}amino)benzoic acid] had an EC50 of 1600 nM.
With `N[C@@H](CNC(=O)Nc1cc(C(=O)O)ccc1Cl)C(=O)O` [Example 88, 3-({[(2S)-2-amino-2-carboxyethyl]carbamoyl}amino)-4-chlorobenzoic acid] the figure was 2300 nM; with `Cc1cc(C)c(S(=O)(=O)O)cc1NC(=O)NC[C@H](N)C(=O)O` [Example 89, (2S)-2-amino-3-{[(2,4-dimethyl-5-sulfophenyl)carbamoyl]amino}propano is acid], 1100 nM.
`N[C@@H](CNC(=O)Nc1cccc(C(=O)O)c1O)C(=O)O` [Example 90, 3-({[(2S)-2-amino-2-carboxyethyl]carbamoyl}amino)-2-hydroxybenzoic acid]: a half-maximal response (EC50) required 1000 nM.
The value for `N[C@@H](CNC(=O)Nc1cc(C(=O)O)cc([N+](=O)[O-])c1)C(=O)O` [Example 92, 3-({[(2S)-2-amino-2-carboxyethyl]carbamoyl}amino)-5-nitrobenzoic acid] was 1800 nM.
The value for `Cc1ccc(C(=O)O)cc1NC(=O)NC[C@H](N)C(=O)O` [Example 93, 3-({[(2S)-2-amino-2-carboxyethyl]carbamoyl}amino)-4-methylbenzoic acid] was 5000 nM; that for `Cc1ccc(NC(=O)NC[C@H](N)C(=O)O)cc1C(=O)O` [Example 99, 5-({[(2S)-2-amino-2-carboxyethyl]carbamoyl}amino)-2-methylbenzoic acid] was 15000 nM; that for `COc1c(NC(=O)NC[C@H](N)C(=O)O)cccc1C(=O)O` [Example 100, 3-({[(2S)-2-amino-2-carboxyethyl]carbamoyl}amino)-2-methoxybenzoic acid] was 5800 nM.
